Experimental data: patent US20190365705A1, “TOPICAL TOCOTRIENOL COMPOSITIONS AND METHODS OF INCREASING SKIN STEM CELLS” (OHIO STATE INNOVATION FOUNDATION, priority 2017, published 2019)
{6FAM} = 6-carboxyfluorescein label

Tests used:
[1] = test system: β-catenin-Tcf3 complex; experiment: Tcf3 decoy transfection of keratinocytes with tocotrienol treatment (quantitative immunocytochemistry); assay type: cell-based, human; settings: 24 h
Experimental: (§1) Cell and cell culture. Immortalized human keratinocytes (HaCaT) were grown in Dulbecco's low-glucose modified Eagle's medium (Life Technologies) as described previously.^55 Cells were maintained in a standard culture incubator with humidified air containing 5% CO2 at 37° C.
Synthesis of Tcf3 decoy and control double-stranded oligodeoxynucleotides. Tcf3 decoy and control double-stranded oligodeoxynucleotides were prepared as described previously.^22 Briefly, FAM labelled phosphorothioate oligodeoxynucleotides were synthesized and purified by Sigma-Aldrich. The oligonucleotides sequence used were as follow: Tcf3 decoy sense, 5′-6FAM-CCGGGCTTTGATCTTTGC-3′ (SEQ ID NO:1); Tcf3 decoy anti-sense, 5′-6FAM-GCAAAGATCAAAGCCCGG-3′ (SEQ ID NO:2); Tcf3 scramble sense, 5′-6FAM-CCGGGTCAGTTCTTTTGC -3′ (SEQ ID NO:3); Tcf3 scramble anti-sense, 5′-6FAM-GCAAAAGAACTGACCCGG -3′ (SEQ ID NO:4). […]
(§2) Histology, immunohistochemistry (IHC) and immunocytochemistry (ICC). […] Signal was visualized by subsequent incubation with either biotinylated-tagged for DAB staining and fluorescence-tagged appropriate secondary antibodies (Alexa 488-tagged α-mouse, 1:200; Alexa 568-tagged α-mouse, 1:200; Alexa 488-tagged α-rabbit, 1:200; Alexa 568-tagged α-rabbit, 1:200; Alexa 568-tagged α-rat, 1:200).

[2] = test system: β-catenin and Tcf3; experiment: Proximity ligation assay (PLA) for β-catenin-Tcf3 in keratinocytes; assay type: cell-based, human; settings: 1 μM, 24 h
Experimental: as §1
In situ proximity ligation assay (PLA). PLA was performed as described previously using Sigma Duolink® in situ red starter kit for […] (DUO92105) following manufacturer's instructions except that the incubation time was prolonged to 90 minutes.^58 The assay was performed using rabbit Tcf3 (Abcam, ab69999; 1:50) and mouse β-catenin (Abcam, ab22656; 1:200) antibodies. Slides were imaged using Olympus FV 1000 spectral confocal microscope.

[3] = test system: human HaCaT keratinocytes; experiment: E-cadherin expression and β-catenin nuclear translocation in HaCaT keratinocytes (immunocytochemistry); assay type: cell-based; settings: 24 h
Experimental: as §1
as §2, with “(ICC). Histology of skin was performed from 8 μm thick paraffin sections after staining with Hematoxylin and Eosin (H&E).” for “(ICC).”

[4] = test system: β-catenin; experiment: Topical IWR-1 pre-treatment of adult murine skin followed by TRF; assay type: in vivo, C57B1/6 mice
Experimental: Mice were randomly (www.random.org) divided into different groups as indicated in corresponding figure legends. The dorsal skin was shaved and hair was depilated using Nair® two days before experiments. TRF or its placebo (PBO) was applied topically at a dose of 5 mg/cm^2 skin, thrice per week. During the procedure, mice were anesthetized by low-dose isoflurane inhalation. Digital photographs were collected (Canon PowerShot S6 and Dermascope from Dino-lite ProII). In some experiments, to inhibit β-catenin expression, IWR-1 (Sigma; I0161) was used. A 10% DMSO stock IWR-1 solution was prepared and diluted with glycerol to a final concentration of 2 μg per 0.5 cm^2 of skin. This solution was applied topically on the dorsal skin of C57B1/6 mice at a dose of 12.5 μL/0.5 cm^2 for four consecutive days of IWR-1 or vehicle followed by 7 consecutive days of […] for one hour under occlusive dressing (Tegaderm™, 3M, St. Paul, Minn.).
Detection of anagen induction. Promotion of hair growth was evaluated by observing the skin color which is indicative of the telogen-to-anagen conversion.^50 Skin, collected and 8 μm formalin-fixed paraffin-embedded skin sections, were deparaffinized and stained with hematoxylin & eosin. Mosaic images at 20× were collected using Axioscanner (Zeiss Microscopy). From histological characterization of the sections, anagen follicles in dermis and subcutis layers were enumerated.
Histology, immunohistochemistry (IHC) and immunocytochemistry (ICC). Histology of skin was performed from 8 μm thick paraffin sections after staining with Hematoxylin and Eosin (H&E). Immunostaining of Ki67 (Abcam, ab15580; 1:400), LGR6 (Abcam, ab126747; 1:100), CD34 (Abcam, ab8158; 1:200), OCT4 (Abcam, ab19857; 1:200), SOX9 (Abcam, ab185230; 1:1000), KLF4 (Abcam; ab151733, 1:200), c-MYC (Abcam; ab32072, 1:200), NANOG (Abcam; ab80892, 1:200), K17 (Abcam, ab53707; 1:100), K15 (Abcam, ab52816; 1:100), Claudin (Invitrogen, RB9209P; 1:200), Occludin (Invitrogen, 711500; 1:200), ZO-1(Invitrogen, 617300; 1:200), ZO-2 (Invitrogen, 389100; 1:200), E-cadherin (Life Technologies, 131900; 1:200) and β-catenin (Abcam, ab22656; 1:200) were performed on paraffin and cryosections of skin sample using specific antibodies as indicated.^57 For immunocytochemistry, cells were fixed with cell fixation buffer (ebiosciences; 00-8222-49) and stained for respective antibodies. Specificity of the antibodies were validated using rabbit isotype control (Abcam, ab27478; 1:400), rat isotype control (Abcam, ab18412; 1:200), and mouse isotype control (Abcam, ab18443; 1:200) (FIG. 13). Briefly, OCT embedded tissue were cryosectioned (10 μm), fixed with cold acetone, blocked with 10% normal goat serum and incubated with specific antibodies overnight at 4° C. Signal was visualized by subsequent incubation with either biotinylated-tagged for DAB staining and fluorescence-tagged appropriate secondary antibodies (Alexa 488-tagged α-mouse, 1:200; Alexa 568-tagged α-mouse, 1:200; Alexa 488-tagged α-rabbit, 1:200; Alexa 568-tagged α-rabbit, 1:200; Alexa 568-tagged α-rat, 1:200).

α-tocotrienol [pure tocotrienol]
stemness and pluripotency factors (SOX9, OCT4, K17, K15, KLF4, c-MYC, NANOG) in keratinocytes ([1]; pure tocotrienol 1 μM): induction of stemness as well as pluripotency factors | interaction of β-catenin and Tcf3 (PLA) [2]: interaction of β-catenin and Tcf3 in the nucleus | membrane E-cadherin expression ([3]; 1 μM): sharp decrease | nuclear translocation of β-catenin ([3]; pure tocotrienol 1 μM): nuclear translocation of β-catenin

O=C(Nc1cccc2cccnc12)c1ccc(N2C(=O)[C@@H]3[C@H](C2=O)[C@@H]2C=C[C@H]3C2)cc1 [IWR-1]
TRF-induced translocation of β-catenin to the nucleus [4]: inhibited TRF-induced translocation of β-catenin to the nucleus | lowering of E-cadherin in response to TRF [4]: did not influence | epidermal β-catenin ([4]; TRF-treated adult skin): effective in degrading epidermal β-catenin | number of anagen hair follicles induced by topical TRF ([4]; day 11 (day 7 post TRF application), vs vehicle): significantly decreased | TRF-stimulated keratinocyte proliferation (Ki67+ cells) ([4]; vs vehicle DMSO): eliminating the effect of TRF on stimulating keratinocytes proliferation

Tcf3 decoy: FAM labelled phosphorothioate double-stranded oligodeoxynucleotide based on Tcf3 binding consensus sequence (SEQ ID NO:1/2) (sense CCGGGCTTTGATCTTTGC; antisense GCAAAGATCAAAGCCCGG; DNA, all phosphorothioate, 5' {6FAM}, methylation of C not given here)
effect on tocotrienol-induced stemness and pluripotency factors ([1]; decoy 0.1 μM vs scramble 0.1 μM, tocotrienol 1 μM): markedly blunted
